This is an account of results in patent publication US7063946B2, “Methods, reagents, kits and apparatus for protein function analysis” (Meso Scale Technologies, LLC., priority 2001, dated 2006).

Common to all, as to test: Kinase inhibitor profiling, pEY phosphorylation
Format in all cases: biochemical

In one assay the target is T1, EphB4 (Mus musculus, UniProt P54761).
T1 construct: specificity data for proteins generated from a library of eighteen full-length clones; host or cells: rabbit reticulocyte lysate, TnT coupled in vitro transcription/translation (cell-free)
T1 sequence (P54761 16-987): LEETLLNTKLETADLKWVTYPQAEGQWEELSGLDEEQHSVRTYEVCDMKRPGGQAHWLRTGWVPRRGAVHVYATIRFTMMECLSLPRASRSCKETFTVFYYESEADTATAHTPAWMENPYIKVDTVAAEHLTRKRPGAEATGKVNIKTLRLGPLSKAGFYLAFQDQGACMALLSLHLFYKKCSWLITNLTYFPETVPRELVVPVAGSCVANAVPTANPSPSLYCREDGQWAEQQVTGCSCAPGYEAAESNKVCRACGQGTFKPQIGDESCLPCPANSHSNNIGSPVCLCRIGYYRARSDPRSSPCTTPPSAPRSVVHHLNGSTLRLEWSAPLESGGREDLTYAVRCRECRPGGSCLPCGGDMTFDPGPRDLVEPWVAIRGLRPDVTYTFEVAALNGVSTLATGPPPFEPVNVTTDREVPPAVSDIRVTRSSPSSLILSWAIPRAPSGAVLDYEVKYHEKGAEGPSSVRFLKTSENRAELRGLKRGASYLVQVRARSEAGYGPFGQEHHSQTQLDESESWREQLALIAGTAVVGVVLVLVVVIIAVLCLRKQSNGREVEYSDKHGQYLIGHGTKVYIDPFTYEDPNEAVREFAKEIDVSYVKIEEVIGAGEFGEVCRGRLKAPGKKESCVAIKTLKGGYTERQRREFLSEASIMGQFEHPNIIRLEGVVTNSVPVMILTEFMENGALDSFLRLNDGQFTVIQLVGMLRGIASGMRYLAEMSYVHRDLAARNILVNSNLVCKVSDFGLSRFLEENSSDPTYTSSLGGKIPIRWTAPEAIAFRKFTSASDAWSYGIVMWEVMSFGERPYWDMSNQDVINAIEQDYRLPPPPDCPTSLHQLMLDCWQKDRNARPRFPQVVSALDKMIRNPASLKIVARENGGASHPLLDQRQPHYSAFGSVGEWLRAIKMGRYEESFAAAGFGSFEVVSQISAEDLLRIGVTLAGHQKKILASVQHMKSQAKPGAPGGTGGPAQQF
Here is the method: (§1) Proteins were produced in an in vitro transcription and translation reaction. […] The unbound components of the reaction containing endogenous kinases were removed by three washes with TT-buffer (25 mM Tris-HCl buffer pH 7.4 and 0.004% Triton), two five minutes washings with high-salt wash buffer (25 mM Tris-HCl buffer pH 7.4, 0.004% Triton, 1M NaCl and 5 mM DTT) and 3 more washes with TT-buffer. To these immobilized and purified proteins a tyrosine kinase substrate, 5 nM pEY (poly Glu-Tyr, Sigma, MO), was added in a 50 μl reaction solution containing 5 mM MgCl2, 5 mM MnCl2, 100 μM ATP, 25 mM Tris-HCl buffer pH 7.4, 0.05 mM Na3VO4, 0.004% TritonX-100, 2 mM DTT and EDTA-free protease inhibitor (Roche Molecular Biochemicals). This mixture was incubated with shaking at room temperature overnight to allow phosphorylation of the pEY substrate by the immobilized kinases. Following this incubation, 45 μl of this mixture was transferred to a streptavidin or avidin-coated NPT IPR plate coated with biotinylated anti-phosphotyrosine antibody (PY20, Zymed labs, CA) followed by incubation for 30 minutes at room temperature to allow the binding of the phosphorylated pEY substrate to the PY20 coated NPT plate. Following this binding step, 50 ng Sulfo-TAG labeled anti-phosphotyrosine in buffer containing 25 mM Tris-HCl buffer pH 7.4, 5 mM MgCl2, 0.05 mM Na3VO4, 0.004% TritonX-100, 2 mM DTT and 0.05% IgG was added followed by incubation at room temperature for 30 mm. The unbound reagents were removed by one time washing with water, and the TAG label was detected in presence of 150 μl IPR assay buffer (0.4 mM Gly-Gly buffer, pH 7.8, 1 mM EDTA, 0.1 M TPA). The ECL signals were measured using an imaging plate reader.
(§2) Proteins were produced using 100 ng of plasmid DNA Mock (Luciferase, Promega) or tyrosine kinases (Fert2 IMAGE ID # 4485050, FGFR1 IMAGE ID # 4037899, Fgfr2 IMAGE ID # 2654352, Src IMAGE ID # 3156400, BMX IMAGE ID # 3919253, LCK IMAGE ID # 4191610, Epha7 IMAGE ID # 3991628, Ephb4 IMAGE ID # 4013934, Tek IMAGE ID # 3482498, HCK IMAGE ID # 4778819, BTK IMAGE ID # 4478463, CSK IMAGE ID # 4398416, SYK IMAGE ID # 3870426, FGR IMAGE ID # 4419973, PTK2B IMAGE ID # 4339456, FRK(IMAGE ID # 4515877, Kit IMAGE ID # 2644960, Fgfr-4 IMAGE ID # 4239139, NTRK3 IMAGE ID # 4181574, Kdr IMAGE ID # 4238984, Incyte Genomics, CA) and immobilized on SA or avidin coated NPT-IPR plates as described in previous examples. The unbound components of the translation reaction (including any endogenous kinases) were removed by 3 washes with TT-buffer (25 mM Tris-HCl buffer pH 7.4 and 0.004% Triton), two five minutes washes with high-salt wash buffer (25 mM Tris-HCl buffer pH 7.4, 0.004% Triton, 1M NaCl and 5 mM DTT) and 3 washes with TT-buffer. […] The mixture was incubated at room temperature for 10 mm before starting the kinase reaction by adding 25 μl of 200 μM ATP in buffer A. This mixture was incubated with intermittent shaking at room temperature for 2 hours to overnight to allow (a) phosphorylation of the pEY substrate and (b) autophosphorylation of the immobilized kinases. Autophosphorylation and phosphorylation of the pEY was measured as described in Examples 7 and 8.
(§3) The ECL signal in control wells produced by tyrosine kinases was compared to the wells containing inhibitor compounds. The signal produced from Mock was negligible.

A further assay deals with T2, FGFR1 (Homo sapiens, UniProt P11362).
T2 construct: specificity data for proteins generated from a library of eighteen full-length clones; host or cells: rabbit reticulocyte lysate, TnT coupled transcription/translation
Here is the method:
as §1, §2, §3

For another assay, the target named is T3, Fgfr4 (Mus musculus, UniProt Q03142).
T3 construct: specificity data for proteins generated from a library of eighteen full-length clones; biotin on random lysines (biotin-Lys-tRNA); host or cells: rabbit reticulocyte lysate, coupled transcription/translation (TnT, Promega)
Here is the method:
as §1, §2, §3

The next assay deals with T4, Kit (Mus musculus, UniProt P05532).
T4 construct: specificity data for proteins generated from a library of eighteen full-length clones; biotin on random lysines (biotin-Lys-tRNA); host or cells: rabbit reticulocyte lysate, coupled transcription/translation (TnT, Promega)
Here is the method: as §1, §2, §3

For the next assay, the target named is T5, FGFR2 (Mus musculus, UniProt P21803).
T5 construct: specificity data for proteins generated from a library of eighteen full-length clones; host or cells: rabbit reticulocyte lysate, TnT coupled in vitro transcription/translation (cell-free)
Here is the method:
as §1, §2, §3

T5 sequence (P21803 22-821): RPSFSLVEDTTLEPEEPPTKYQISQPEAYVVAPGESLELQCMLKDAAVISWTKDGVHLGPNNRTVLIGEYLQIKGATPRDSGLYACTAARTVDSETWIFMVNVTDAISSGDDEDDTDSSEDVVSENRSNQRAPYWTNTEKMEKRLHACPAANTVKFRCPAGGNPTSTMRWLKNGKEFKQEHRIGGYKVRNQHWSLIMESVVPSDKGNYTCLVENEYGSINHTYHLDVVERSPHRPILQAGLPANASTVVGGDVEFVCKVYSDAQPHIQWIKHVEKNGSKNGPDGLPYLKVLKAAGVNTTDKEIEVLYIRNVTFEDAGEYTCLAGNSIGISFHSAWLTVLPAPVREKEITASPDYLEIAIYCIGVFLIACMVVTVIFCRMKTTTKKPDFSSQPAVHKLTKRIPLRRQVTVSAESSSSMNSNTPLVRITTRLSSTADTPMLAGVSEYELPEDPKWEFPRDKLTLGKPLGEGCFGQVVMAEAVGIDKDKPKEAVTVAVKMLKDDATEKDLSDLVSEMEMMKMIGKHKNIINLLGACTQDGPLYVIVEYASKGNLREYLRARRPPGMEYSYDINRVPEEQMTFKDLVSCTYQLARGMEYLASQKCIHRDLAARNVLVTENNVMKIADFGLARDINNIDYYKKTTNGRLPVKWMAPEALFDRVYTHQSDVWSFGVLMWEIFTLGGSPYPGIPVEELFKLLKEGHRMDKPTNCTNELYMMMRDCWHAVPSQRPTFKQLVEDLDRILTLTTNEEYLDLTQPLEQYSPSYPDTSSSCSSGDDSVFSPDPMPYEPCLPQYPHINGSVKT
T4 sequence (P05532 25-979): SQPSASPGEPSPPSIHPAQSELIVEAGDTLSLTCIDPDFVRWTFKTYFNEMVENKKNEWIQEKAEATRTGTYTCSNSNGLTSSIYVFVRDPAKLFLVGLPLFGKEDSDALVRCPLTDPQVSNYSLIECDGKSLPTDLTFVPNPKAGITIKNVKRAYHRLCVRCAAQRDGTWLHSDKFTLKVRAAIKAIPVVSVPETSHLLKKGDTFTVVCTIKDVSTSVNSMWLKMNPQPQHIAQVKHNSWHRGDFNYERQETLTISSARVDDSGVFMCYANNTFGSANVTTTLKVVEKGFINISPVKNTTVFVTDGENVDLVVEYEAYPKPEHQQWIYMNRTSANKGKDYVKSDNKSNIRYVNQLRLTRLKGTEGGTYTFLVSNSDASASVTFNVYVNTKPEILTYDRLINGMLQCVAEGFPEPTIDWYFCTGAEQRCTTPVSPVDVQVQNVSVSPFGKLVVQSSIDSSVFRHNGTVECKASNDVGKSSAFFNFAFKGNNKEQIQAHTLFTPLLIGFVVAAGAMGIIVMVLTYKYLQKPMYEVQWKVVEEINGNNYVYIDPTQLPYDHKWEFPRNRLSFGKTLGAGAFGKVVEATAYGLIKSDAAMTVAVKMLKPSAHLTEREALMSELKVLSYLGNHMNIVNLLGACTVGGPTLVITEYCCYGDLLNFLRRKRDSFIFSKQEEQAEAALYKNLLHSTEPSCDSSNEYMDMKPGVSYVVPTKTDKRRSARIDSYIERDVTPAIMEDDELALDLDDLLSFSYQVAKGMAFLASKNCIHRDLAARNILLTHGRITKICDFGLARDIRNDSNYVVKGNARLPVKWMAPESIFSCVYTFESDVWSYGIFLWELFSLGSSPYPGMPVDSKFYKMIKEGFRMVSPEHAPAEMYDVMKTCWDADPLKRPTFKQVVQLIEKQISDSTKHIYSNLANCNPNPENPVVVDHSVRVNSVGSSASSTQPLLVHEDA
T2 sequence (P11362 22-822): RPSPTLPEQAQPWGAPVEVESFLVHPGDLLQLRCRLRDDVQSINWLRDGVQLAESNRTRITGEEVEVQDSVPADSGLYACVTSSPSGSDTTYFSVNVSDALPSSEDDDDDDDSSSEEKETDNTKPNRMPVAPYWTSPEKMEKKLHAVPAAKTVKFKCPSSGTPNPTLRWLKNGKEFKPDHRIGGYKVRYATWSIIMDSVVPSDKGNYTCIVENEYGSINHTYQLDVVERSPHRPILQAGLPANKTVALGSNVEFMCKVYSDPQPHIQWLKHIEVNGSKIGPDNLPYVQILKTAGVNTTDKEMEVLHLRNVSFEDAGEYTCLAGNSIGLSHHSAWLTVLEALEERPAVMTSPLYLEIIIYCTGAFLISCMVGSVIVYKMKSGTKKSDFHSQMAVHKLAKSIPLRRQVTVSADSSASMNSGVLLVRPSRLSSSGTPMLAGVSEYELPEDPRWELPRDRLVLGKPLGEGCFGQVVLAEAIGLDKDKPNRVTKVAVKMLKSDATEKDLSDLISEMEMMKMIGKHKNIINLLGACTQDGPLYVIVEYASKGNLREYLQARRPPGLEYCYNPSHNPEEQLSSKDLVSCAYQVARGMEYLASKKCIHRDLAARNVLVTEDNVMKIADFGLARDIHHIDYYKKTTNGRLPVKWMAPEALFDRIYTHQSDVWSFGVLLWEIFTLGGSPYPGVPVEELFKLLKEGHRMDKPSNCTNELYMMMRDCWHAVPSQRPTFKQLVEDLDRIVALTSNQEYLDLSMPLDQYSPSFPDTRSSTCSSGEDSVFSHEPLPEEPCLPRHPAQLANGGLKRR
T3 sequence (Q03142 17-799): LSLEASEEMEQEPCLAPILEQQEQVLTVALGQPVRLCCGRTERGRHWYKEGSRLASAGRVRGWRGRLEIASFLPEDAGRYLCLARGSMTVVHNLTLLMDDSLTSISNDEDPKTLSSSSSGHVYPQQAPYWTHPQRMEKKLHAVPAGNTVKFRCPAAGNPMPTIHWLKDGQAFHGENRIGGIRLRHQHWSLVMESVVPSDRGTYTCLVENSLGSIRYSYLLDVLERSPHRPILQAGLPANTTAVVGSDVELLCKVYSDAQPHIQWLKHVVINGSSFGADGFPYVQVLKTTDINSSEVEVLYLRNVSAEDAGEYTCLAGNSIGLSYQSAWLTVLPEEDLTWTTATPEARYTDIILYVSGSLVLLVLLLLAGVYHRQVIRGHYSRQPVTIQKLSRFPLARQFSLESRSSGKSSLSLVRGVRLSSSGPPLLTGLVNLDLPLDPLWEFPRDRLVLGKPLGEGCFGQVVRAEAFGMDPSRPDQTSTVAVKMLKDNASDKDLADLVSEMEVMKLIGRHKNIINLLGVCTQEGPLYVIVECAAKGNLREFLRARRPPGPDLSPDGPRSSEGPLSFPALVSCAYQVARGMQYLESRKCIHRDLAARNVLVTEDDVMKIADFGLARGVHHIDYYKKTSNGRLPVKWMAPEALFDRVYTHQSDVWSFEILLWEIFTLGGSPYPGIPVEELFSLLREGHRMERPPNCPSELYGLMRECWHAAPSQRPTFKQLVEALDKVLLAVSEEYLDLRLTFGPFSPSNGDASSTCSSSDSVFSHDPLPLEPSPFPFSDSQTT

As for `Cc1ccc(-c2nn(C(C)(C)C)c3ncnc(N)c23)cc1` [PP1], the “Inhibition specificity towards pEY phosphorylation at 10X IC50, EphB4” value at EphB4 is listed as “L (low inhibition (“L”=between 50–75% of the activity remaining))”. The “Inhibition specificity towards pEY phosphorylation at 10X IC50, FGFR1” value on FGFR1 is on record as “L (low inhibition (“L”=between 50–75% of the activity remaining))”. Also, the “Inhibition specificity towards pEY phosphorylation at 10X IC50, Fgfr4” value on Fgfr4 is listed as “M (medium inhibition (“M”=between 25 to 50% of the activity remaining))”. The “Inhibition specificity towards pEY phosphorylation at 10X IC50, Kit” value on Kit is listed as “M (medium inhibition (“M”=between 25 to 50% of the activity remaining))”.

Regarding `COc1c(C=O)c(O)cc2c1C(=O)c1ccccc1C2=O` [Damnacanthal], on EphB4, the “Inhibition specificity towards pEY phosphorylation at 10X IC50, EphB4” value is on record as “H (high inhibition (“H”=less than 25% of the activity remaining))”. The “Inhibition specificity towards pEY phosphorylation at 10X IC50, FGFR1” value on FGFR1 is on record as “H (high inhibition (“H”=less than 25% of the activity remaining))”. The “Inhibition specificity towards pEY phosphorylation at 10X IC50, FGFR2” value at FGFR2 was “H (high inhibition (“H”=less than 25% of the activity remaining))”. For the same compound, the “Inhibition specificity towards pEY phosphorylation at 10X IC50, Fgfr4” value at Fgfr4 is reported as “H (high inhibition (“H”=less than 25% of the activity remaining))”. Further, the “Inhibition specificity towards pEY phosphorylation at 10X IC50, Kit” value at Kit is recorded as “H (high inhibition (“H”=less than 25% of the activity remaining))”.

As to `Cc1cc2ncc(-c3ccc(O)c(O)c3)nc2cc1C` [AG-1433], on EphB4, the “Inhibition specificity towards pEY phosphorylation at 10X IC50, EphB4” value is reported as “H (high inhibition (“H”=less than 25% of the activity remaining))”. Further, the “Inhibition specificity towards pEY phosphorylation at 10X IC50, FGFR1” value on FGFR1 is “H (high inhibition (“H”=less than 25% of the activity remaining))”. The “Inhibition specificity towards pEY phosphorylation at 10X IC50, FGFR2” value at FGFR2 is “H (high inhibition (“H”=less than 25% of the activity remaining))”. The “Inhibition specificity towards pEY phosphorylation at 10X IC50, Fgfr4” value on Fgfr4 was “H (high inhibition (“H”=less than 25% of the activity remaining))”. In addition, the “Inhibition specificity towards pEY phosphorylation at 10X IC50, Kit” value at Kit is given as “H (high inhibition (“H”=less than 25% of the activity remaining))”.

In the case of `COc1cc2ncnc(Nc3ccc(O)cc3)c2cc1OC` [WHI-P131], on EphB4, the “Inhibition specificity towards pEY phosphorylation at 10X IC50, EphB4” value is reported as “M (medium inhibition (“M”=between 25 to 50% of the activity remaining))”. At FGFR1, the “Inhibition specificity towards pEY phosphorylation at 10X IC50, FGFR1” value is reported as “L (low inhibition (“L”=between 50–75% of the activity remaining))”. Moreover, the “Inhibition specificity towards pEY phosphorylation at 10X IC50, FGFR2” value at FGFR2 is given as “L (low inhibition (“L”=between 50–75% of the activity remaining))”. Moreover, on Fgfr4, the “Inhibition specificity towards pEY phosphorylation at 10X IC50, Fgfr4” value was “L (low inhibition (“L”=between 50–75% of the activity remaining))”. Further, the “Inhibition specificity towards pEY phosphorylation at 10X IC50, Kit” value at Kit is recorded as “H (high inhibition (“H”=less than 25% of the activity remaining))”.

Turning to `CC(C)(C)c1cc(C=C(C#N)C#N)cc(Br)c1O` [AG-1024], at EphB4, the “Inhibition specificity towards pEY phosphorylation at 10X IC50, EphB4” value was “L (low inhibition (“L”=between 50–75% of the activity remaining))”. For the same compound, the “Inhibition specificity towards pEY phosphorylation at 10X IC50, FGFR1” value on FGFR1 is recorded as “L (low inhibition (“L”=between 50–75% of the activity remaining))”. Also, the “Inhibition specificity towards pEY phosphorylation at 10X IC50, FGFR2” value at FGFR2 is “L (low inhibition (“L”=between 50–75% of the activity remaining))”. The “Inhibition specificity towards pEY phosphorylation at 10X IC50, Fgfr4” value on Fgfr4 was “M (medium inhibition (“M”=between 25 to 50% of the activity remaining))”. On Kit, the “Inhibition specificity towards pEY phosphorylation at 10X IC50, Kit” value is “L (low inhibition (“L”=between 50–75% of the activity remaining))”.

Turning to `COc1cc2ncnc(Nc3ccc(Cl)cc3F)c2cc1OC` [VEGFR inhibitor], the “Inhibition specificity towards pEY phosphorylation at 10X IC50, EphB4” value at EphB4 is listed as “M (medium inhibition (“M”=between 25 to 50% of the activity remaining))”. In addition, the “Inhibition specificity towards pEY phosphorylation at 10X IC50, FGFR2” value at FGFR2 is “L (low inhibition (“L”=between 50–75% of the activity remaining))”. Further, the “Inhibition specificity towards pEY phosphorylation at 10X IC50, Fgfr4” value on Fgfr4 is reported as “L (low inhibition (“L”=between 50–75% of the activity remaining))”. Moreover, on Kit, the “Inhibition specificity towards pEY phosphorylation at 10X IC50, Kit” value is “L (low inhibition (“L”=between 50–75% of the activity remaining))”.

Take Erbstatin analog: the “Inhibition specificity towards pEY phosphorylation at 10X IC50, EphB4” value at EphB4 is given as “L (low inhibition (“L”=between 50–75% of the activity remaining))”. Also, at Kit, the “Inhibition specificity towards pEY phosphorylation at 10X IC50, Kit” value is on record as “L (low inhibition (“L”=between 50–75% of the activity remaining))”.

For the compound `COC(=O)c1ccc(NCc2cc(O)ccc2O)cc1` [AG-957], on EphB4, the “Inhibition specificity towards pEY phosphorylation at 10X IC50, EphB4” value is listed as “L (low inhibition (“L”=between 50–75% of the activity remaining))”. For the same compound, the “Inhibition specificity towards pEY phosphorylation at 10X IC50, FGFR1” value on FGFR1 is listed as “L (low inhibition (“L”=between 50–75% of the activity remaining))”. The “Inhibition specificity towards pEY phosphorylation at 10X IC50, FGFR2” value at FGFR2 was “L (low inhibition (“L”=between 50–75% of the activity remaining))”. The “Inhibition specificity towards pEY phosphorylation at 10X IC50, Kit” value on Kit is reported as “L (low inhibition (“L”=between 50–75% of the activity remaining))”.
